From PMC5902437, “Structural studies on radiopharmaceutical DOTA-minigastrin analogue (CP04) complexes and their interaction with CCK2 receptor” (EJNMMI Research, 2018)

Assays:
human CCK-2R = target: T1, human CCK-2R (Homo sapiens, UniProt P32239); test: Competition binding assay with [^90Y]Y-CP04 as competitive radioligand in A431-CCK2R(+) cells; conditions: 0.5 mln per well, radioligand [^90Y]Y-CP04 0.24 pmol per well, 1 h at 37 °C, competitor 10^-6–10^-13 M, cell-associated radioactivity by gamma counter, mean ± SD, n = 3 experiments in triplicate, read-out: apparent 50% inhibitory concentration (IC50) for hCCK-2R
T1 construct: expressed in transfected cells; host or cells: A431 human epidermoid carcinoma cells, stably transfected (gift of Prof. Luigi Aloj)
T1 sequence (P32239 1-447): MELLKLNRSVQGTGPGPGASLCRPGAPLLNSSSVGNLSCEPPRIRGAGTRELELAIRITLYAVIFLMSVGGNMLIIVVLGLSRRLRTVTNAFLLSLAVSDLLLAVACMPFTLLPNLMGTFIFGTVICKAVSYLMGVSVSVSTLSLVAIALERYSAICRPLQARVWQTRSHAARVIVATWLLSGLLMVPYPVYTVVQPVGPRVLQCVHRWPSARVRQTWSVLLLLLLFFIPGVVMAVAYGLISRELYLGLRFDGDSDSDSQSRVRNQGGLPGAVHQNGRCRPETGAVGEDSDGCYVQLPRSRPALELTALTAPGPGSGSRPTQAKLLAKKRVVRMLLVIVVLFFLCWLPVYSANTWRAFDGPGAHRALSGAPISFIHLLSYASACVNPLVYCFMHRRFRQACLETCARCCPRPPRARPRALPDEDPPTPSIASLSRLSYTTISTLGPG
Description: The A431 human epidermoid carcinoma cell line stably transfected with the human CCK2R (A431-CCK2R(+)) and mock transfected with an empty vector alone (A431-CCK2R(−)) were kindly provided by Prof. Luigi Aloj.
The cells were cultured in Dulbecco’s modified Eagle’s medium (DMEM) supplemented with 10% of heat-inactivated fetal bovine serum and antibiotics (penicillin 100 U/mL and streptomycin 100 μg/mL) and cultivated at 37 °C in 5% CO2.
The binding affinity (the apparent 50% inhibitory concentration (IC50)) of [^natGa]Ga-CP04 and [^natLu]Lu-CP04 complexes for CCK2 receptor was determined in A431-CCK2R(+) cell line using [^90Y]Y-CP04 as a competitive radioligand according to the method used by Roosenburg et al.. [^90Y]Y-CP04 was obtained with a molar activity of 2.05 GBq/μmol calculated at the time of experiment and 98% radiochemical purity as determined by radio HPLC method. Human epidermoid carcinoma (A431-CCK2(+)) cells were subcultured overnight in 12-well plates in concentration of 0.5 mln per well. Before the experiments, the cells were washed with DMEM medium and then [^90Y]Y-labeled CP04 (2.05 GBq/μmol) was added to the cells in amount of 0.24 pmol per well (ca. 80,000 cpm) and incubated for 1 h at 37 °C with increasing concentrations (10^−6–10^−13 M) of the Ga and Lu complexes of CP04 peptide. […]

CCK-2R = conditions: literature SAR of CCK/gastrin derivatives; cited from earlier work
Excerpt: Table 3 SAR data from CCK/gastrin derivatives and their correspondence to our model | column: SAR data from CCK/gastrin derivatives

| IC50 (human CCK-2R) [nM] | Compound | binding to the receptor (SAR data in words) (CCK-2R) |
| --- | --- | --- |
| 1.15 ± 0.39 | CSCC[C@H](NC(=O)[C@H](Cc1c[nH]c2ccccc12)NC(=O)CNC(=O)[C@H](Cc1ccc(O)cc1)NC(=O)[C@H](C)NC(=O)[C@@H](CCC(=O)O)NC(=O)[C@@H](CCC(=O)O)NC(=O)[C@@H](CCC(=O)O)NC(=O)[C@@H](CCC(=O)O)NC(=O)[C@@H](CCC(=O)O)NC(=O)[C@@H](CCC(=O)O)NC(=O)CN1CCN(CC(=O)O)CCN(CC(=O)O)CCN(CC(=O)O)CC1)C(=O)N[C@@H](CC(=O)O)C(=O)N[C@@H](Cc1ccccc1)C(N)=O [[^natGa]Ga-CP04, metal not drawn] |  |
| 1.02 ± 0.28 | CSCC[C@H](NC(=O)[C@H](Cc1c[nH]c2ccccc12)NC(=O)CNC(=O)[C@H](Cc1ccc(O)cc1)NC(=O)[C@H](C)NC(=O)[C@@H](CCC(=O)O)NC(=O)[C@@H](CCC(=O)O)NC(=O)[C@@H](CCC(=O)O)NC(=O)[C@@H](CCC(=O)O)NC(=O)[C@@H](CCC(=O)O)NC(=O)[C@@H](CCC(=O)O)NC(=O)CN1CCN(CC(=O)O)CCN(CC(=O)O)CCN(CC(=O)O)CC1)C(=O)N[C@@H](CC(=O)O)C(=O)N[C@@H](Cc1ccccc1)C(N)=O [[^natLu]Lu-CP04, metal not drawn] |  |
|  | H-Trp-Met-Asp-Phe-NH2 [CCK-4, C-terminal tetrapeptide of CCK] | 1. C-terminal sequence in cholecystokinins and gastrins is a condition necessary and sufficient for high affinity towards the receptor 2. Even a fragment as small as a tetrapeptide H-Trp-Met-Asp-Phe-NH2 (CCK-4) exhibits relatively good binding |
